Data: patent US5462927A, “Peptides aiding nerve regeneration” (The Administrators of the Tulane Educational Fund, priority 1992, dated 1995)
Square brackets hold non-standard residues; d marks the D form. Peptide text beside a SMILES is read from it.

How the values were obtained:
Format in all cases: in vivo, rat
crushed peroneal nerve = experiment: Walking test (locomotor pattern, toespread) after peroneal nerve crush
Procedure: (§1) The effect of BIM-22015 regeneration of the crushed peroneal nerve in the rat was assessed using both morphological and physiological studies, as follows. Both locomotor pattern and endplate morphology during the early stages of crushed nerve regeneration were assessed after treatment with BIM-220150 Adult Sprague-Dawley male rats (Taconic Farms) were maintained at 25° C. on a 12 hour light and a 12 hour dark cycle and were supplied with standard rat chow and water ad lib. All surgery was performed under anesthesia with 8% chlorohydrate (0.6 ml/100 g I.P.). Denervation was accomplished using a #5 Dumont forceps with a uniformly filed tip to crush the peroneal nerve. This crush produced a 1 mm wide lesion just proximal to the EDL (extention digitarum longus) muscle. The wound was closed with surgical staples. Following surgery, the animal was immediately administered saline or BIM-22015 in one of the following dosages: (1) 0.9% saline, (2) 10.0 ug BIM-22015, (3) 5.0 ug BIM-22015, (3) 1.0 ug BIM-22015, or (4) 0.1 ug BIM-22015 (per animal). Administration continued once every 48 hours for 5 days; on day 5, the rats were killed and tissues taken for morphological analysis. All injections and surgeries occurred between 10:00 and 12:00 noon.
Locomotor pattern was tested by measuring the walking pattern of the animal. The animal was allowed to walk up a 20° inclined platform. The track was well-lit by fluorescent tubes and a dark box was placed at the end of the track. This dark and light differences was used to entice the animal to walk up the track. […] The distance between the first and fifth digit was determined using a Manostat mechanical caliper (type 6911) with accuracy of ±0.005 mm0 The contralateral foot was used as a control to negate the size differences in individual animals. The Student T test was used to determine the statistical differences, and data were expressed as means of the six sharpest toespreads and the standard error of the mean (using 95% confidence formula), standard deviation, and variances.

[1] = tested on: crushed peroneal nerve; endplates of the EDL; experiment: Endplate morphology of EDL muscle after peroneal nerve crush (silver-cholinesterase stain)
Procedure: as §1
Morphological studies of crushed nerve regeneration were performed as follows. On day 5, the rats were anesthetized with 8% chlorohydrate (0.6 ml/100 g IP) before surgery. The animal was placed ventral side down and a skin incision was made on the hindlimb from the lateral epicondyle of the femur to the lateral malleolus in the ankle. The extensor digitorium longus muscle (EDL) was then carefully exposed from its surrounding connective tissue and extreme care taken to preserve the blood supply. The EDL is a heterogenous muscle consisting of both fast white muscle fibers and slow red muscle fibers. It is classified as a fast muscle based upon its isometric twitch parameters. The origin of the EDL is the epicondyle of the femur to the distal tendon which divides into four parts with insertions into the third phalange base of the second to the fifth digits. It is innervated by the peroneal nerve and its blood is supplied by the anterior tibial artery. The muscle was prepared for staining as follows.
The silver-cholinesterase method of staining of Pecot-Dechavssine et al. (1979 Stain. Technol. 54:25) was used to stain the endplates, or neuromuscular junctions, of the EDL. Briefly, the muscle was fixed in situ by 1% neutral formalin in normal Ringer's solution. The muscle was then excised and placed in fresh 1% neutral formalin solution for extra 3-4 minutes. The endplates were localized with the stain described by Karnovsky et al. (1964, J. Hist. Chem. Cytochem. 12:219) for 7-15 minutes under visual control. After localization, the EDL was soaked in 5% neutral formalin solution for 20 minutes, then washed in Triton X-100 detergent for 1 hour. After the detergent step, the EDL was fixed in 80% ethanol solution for 1 hour. Finally, the endplates were impregnated with silver using 0.5% protargol solution overnight (12-30 hrs., at 37° C.).
The following day, the excess silver was reduced using a Bodian developer for 18 minutes. The muscle was rinsed in distilled water, finely teased, and mounted using a glycoglyerol mounting gel.
The endplates were observed using Olympus BH series binocular microscope at a magnification of 100× using an oil immersion objective lens. A low light sensitive video camera mounted on top of the Olympus projected the slide onto a black and white monitor. A Bioquant image digitizer with a manual optic mouse was used to determine the following parameters: (1) endplate […], (2) endplate area, (3) endplate internal branching, and (4) muscle fiber diameter. The Bioquant statistical package was used to determine statistical differences, and the data are expressed as means and standard error of the mean. The Student's t-test and the ANOVA statistical tests were performed. […]

[2] = tested on: sectioned sciatic nerve; common extensor muscle of the finger; experiment: Characteristics of a single pulse of the common extensor muscle after sciatic nerve section; conditions: for Single Pulse: Contraction Time / Single Pulse: Half-Relaxation Time / Single Pulse: Latence / Single Pulse: Muscle Strength Normalized to Muscle Weight / Single Pulse: Speed of Contraction / Single Pulse: Speed of Relaxation / Single Pulse: Strength: 35d. p.o.p.
[3] = tested on: sectioned sciatic nerve; common extensor muscle of the finger; experiment: Muscle weight after sciatic nerve section; conditions: for Muscle weight Normalized to Mean Animal Weight: 35d. p.o.
[4] = BIM 0.1 μG per animal every 48 hours, day 5, A = p < 0.025
[5] = BIM 0.1 μG per animal every 48 hours, day 5, A = p < 0.025, listed as BIM
[6] = BIM 1.0 μG per animal every 48 hours, day 5
[7] = BIM 5.0 μG per animal every 48 hours, day 5
[8] = BIM 10.0 μG per animal every 48 hours, day 5
[9] = Group 3 (topical in tissucol, lower dose)
[10] = Group 4 (s.c. 5ug.kg.day for 18 days)
[11] = Group 2: Tissue col 10.0 μg/0.5 ml (topical)
[12] = Group 3: Tissue col 1.1 μg/10.5 ml (topical)
[13] = Group 4: s.c. 5 μg 1 kg/day (18 days)

## C[C@@H](N)C(=O)N[C@@H](CCC(N)=O)C(=O)N[C@@H](Cc1ccc(O)cc1)C(=O)N[C@@H](Cc1ccccc1)C(=O)N[C@@H](CCCNC(=N)N)C(=O)N[C@@H](Cc1c[nH]c2ccccc12)C(=O)NCC(N)=O [BIM-22015, D--Ala--Gln--Tyr--Phe--Arg--Trp--Gly--NH2] (H-[dA]QYFRWG-NH2)
Crushed peroneal nerve; 0.1 μg per animal, once every 48 hours, days 3-5 after surgery, not statistically significant
  recovery rate of locomotion (walking test): very consistent upward recovery rate
Crushed peroneal nerve; dosages 0.1-10.0 ug per animal compared
  optimal dosage (walking test): 0.1 µg
Crushed peroneal nerve; the other dosages (above 0.1 μg) vs saline control
  recovery rate of locomotion (walking test): outperformed the saline control animal but only by a slight margin
[1]; BIM 0.1 μG per animal every 48 hours, day 5
  Endplate Morphology: Muscle Fiber Diameter: 63.6(2.72)
[1]; [4]
  Endplate Morphology: Internal Branching: significant increase
  Endplate Morphology: Perimeter: significant increase
[1]; [5]
  Endplate Morphology: Internal Branching: 260.5(39.2)
  Endplate Morphology: Perimeter: 244.3(8.63)
[1]; [6]
  Endplate Morphology: Internal Branching: 201.6(14.2)
  Endplate Morphology: Perimeter: 231.7(5.22)
[1]; BIM 1.0 μG per animal every 48 hours, day 5, C = p < 0.005
  Endplate Morphology: Muscle Fiber Diameter: high muscle hypertrophy
[1]; BIM 1.0 μG per animal every 48 hours, day 5, C = p < 0.005, listed as BIM
  Endplate Morphology: Muscle Fiber Diameter: 76.9(1.70)
[1]; [7]
  Endplate Morphology: Internal Branching: 220.2(18.7)
  Endplate Morphology: Muscle Fiber Diameter: 74.2(2.35)
[1]; BIM 5.0 μG per animal every 48 hours, day 5, B = p < 0.050
  Endplate Morphology: Perimeter: significant increase
[1]; BIM 5.0 μG per animal every 48 hours, day 5, B = p < 0.050, listed as BIM
  Endplate Morphology: Perimeter: 204.2(5.98)
[1]; [8]
  Endplate Morphology: Internal Branching: 173.2(14.6)
  Endplate Morphology: Perimeter: 231.7(12.2)
[1]; BIM 10.0 μG per animal every 48 hours, day 5, C = p < 0.005
  Endplate Morphology: Muscle Fiber Diameter: high muscle hypertrophy
[1]; BIM 10.0 μG per animal every 48 hours, day 5, C = p < 0.005, listed as BIM
  Endplate Morphology: Muscle Fiber Diameter: 82.8(3.74)
[2]; Group 2 (topical in tissucol)
  Single Pulse: Contraction Time: 28.86 ms
  Single Pulse: Half-Relaxation Time: 64.69 ms
  Single Pulse: Latence: 9.93 ms
  Single Pulse: Muscle Strength Normalized to Muscle Weight: 0.30 g/µg
  Single Pulse: Speed of Contraction: 2419 g/ms
  Single Pulse: Speed of Relaxation: 514 g/ms
  Single Pulse: Strength: 20.03 g
[2]; [9]
  Single Pulse: Contraction Time: 16.37 ms
  Single Pulse: Half-Relaxation Time: 40.93 ms
  Single Pulse: Latence: 7.65 ms
  Single Pulse: Muscle Strength Normalized to Muscle Weight: 0.25 g/µg
  Single Pulse: Speed of Contraction: 2939 g/ms
  Single Pulse: Speed of Relaxation: 593 g/ms
  Single Pulse: Strength: 14.96 g
[2]; [10]
  Single Pulse: Contraction Time: 27.68 ms
  Single Pulse: Half-Relaxation Time: 60.72 ms
  Single Pulse: Latence: 9.48 ms
  Single Pulse: Speed of Contraction: 2420 g/ms
  Single Pulse: Speed of Relaxation: 635 g/ms
  Single Pulse: Strength: 26.45 g
[2]; Group 4 (s.c.), p=0.05
  improvement of muscle strength over control group 1 (column 1, Table 4): 28%
[2]; group 4 (s.c.), p=0.01
  improvement of speed of muscle contraction compared to group 1 (column 3, Table 4): 300%
[2]; printed as group 5
  speed of relaxation compared to group 1 (column 4, Table 4): dramatically improved
[3]; [11]
  Muscle Weight 35d. p.o.: 67.9 µg
  Muscle weight Normalized to Mean Animal Weight: 0.211
[3]; [12]
  Muscle Weight 35d. p.o.: 59.7 µg
  Muscle weight Normalized to Mean Animal Weight: 0.212
[3]; [13]
  Muscle Weight 35d. p.o.: 73.1 µg
  Muscle weight Normalized to Mean Animal Weight: 0.226
[3]; group 4 (s.c. administration), not statistically significant
  improvement of muscle weight normalized to mean animal weight over the control group 1: 15%
[3]; groups 2 and 3 (topical in tissucol)
  improvement of muscle weight normalized to mean animal weight over the control group 1: little improvement
[3]; topical administration (groups 2 and 3)
  effect on muscle measurements by route of administration: largely ineffective
